What was measured:
[1] = Biological testing of plasma levels of crystalline forms; assay type: in vivo; details: compared with other crystalline forms of the drug
Text: (§1) We have further discovered that under proper conditions several anhydrous polymorphs of 5,11-dihydro-11-ethyl-5-methyl-8-{2-{(1-oxido-4-quinolinyl)oxy} ethyl}-6H-dipyrido[3,2-b:2′,3′-e][1,4]diazepin-6-one may be formed. […] Thus, the invention further includes anhydrous Form III of 5,11-dihydro-11-ethyl-5-methyl-8-{2-{(1-oxido-4-quinolinyl)oxy}ethyl}-6H-dipyrido[3,2-b:2′,3′-e][1,4]diazepin-6-one and methods for its manufacture.

[2] = Phase stability of crystalline forms at ambient / storage conditions; assay type: physicochemical
Text: A first aspect of the present invention comprises the discovery of a dihydrate crystalline form of 5,11-dihydro-11-ethyl-5-methyl-8-{2-{(1-oxido-4-quinolinyl)oxy}ethyl}-6H-dipyrido[3,2-b:2′,3′-e][1,4]diazepin-6-one. […] The invention also comprises methods for making this dihydrate crystalline form.
as §1

[3] = Solubility experiments used to determine the phase diagram of the crystalline forms; assay type: physicochemical; details: 25° C.; for water content of ethanol solution in contact with which the form is thermodynamically favored over the other forms: ethanol solutions saturated with the compound, compared with the dihydrate, anhydrous Form I and Form III
Description: Solubility experiments were used to determine the unique phase diagram shown in FIG. 5 for the various forms of 5,11-dihydro-11-ethyl-5-methyl-8-{2-{(1-oxido-4-quinolinyl)oxy}ethyl}-6H-dipyrido[3,2-b:2′,3′-e][1,4]diazepin-6-one. […] Additionally, anhydrous Form III is thermodynamically favored over the dihydrate and anhydrous Form I at 25° C. when in contact with ethanol solutions containing<˜2.7±0.5 wt % water.

SMILES | melting point | plasma levels [1] | phase stability ([2]; some tested ambient conditions) | thermodynamic preference between crystalline forms (phase diagram) [3] | water content of ethanol solution in contact with which the form is thermodynamically favored over the other forms [3] | thermodynamic or kinetic preference on storage ([2]; temperatures and humidities most likely encountered on storage of drug substance or drug product, compared with the trihydrate) | water content of ethanol solution in contact with which the form is thermodynamically favored over the other forms ([3]; dihydrate)
CCN1c2ncc(CCOc3cc[n+]([O-])c4ccccc34)cc2C(=O)N(C)c2cccnc21 (hydrate or solvate) [dihydrate, 5,11-dihydro-11-ethyl-5-methyl-8-{2-{(1-oxido-4-quinolinyl)oxy}ethyl}-6H-dipyrido[3,2-b:2′,3′-e][1,4]diazepin-6-one dihydrate] | 199 °C | – | – | – | – | – | –
CCN1c2ncc(CCOc3cc[n+]([O-])c4ccccc34)cc2C(=O)N(C)c2cccnc21 [anhydrous Form III, 5,11-dihydro-11-ethyl-5-methyl-8-{2-{(1-oxido-4-quinolinyl)oxy}ethyl}-6H-dipyrido[3,2-b:2′,3′-e][1,4]diazepin-6-one Anhydrous Form III] | 198.2 °C | higher plasma levels than are attainable using other crystalline forms | demonstrated phase stability | thermodynamically preferred over anhydrous Form I | < 2.7±0.5 wt % water | – | –
CCN1c2ncc(CCOc3cc[n+]([O-])c4ccccc34)cc2C(=O)N(C)c2cccnc21 [dihydrate, 5,11-dihydro-11-ethyl-5-methyl-8-{2-{(1-oxido-4-quinolinyl)oxy}ethyl}-6H-dipyrido[3,2-b:2′,3′-e][1,4]diazepin-6-one dihydrate] | – | – | – | – | – | thermodynamically or kinetically favored | > 2.7 wt % water

— patent US20050222134A1, “Crystalline forms of 5, 11-dihydro-11-ethyl-5-methyl-8-{2-{(1-oxido-4-quinolinyl)oxy}ethyl}-6H-dipyrido[3,2-b:2',3'-e] [1,4]diazepin-6-one” (Boehringer Ingelheim International GmbH, priority 2004, published 2005)
